For this test, the target named is T1, apelin receptor (APJ) (Homo sapiens, UniProt P35414).
T1 sequence (P35414 1-380): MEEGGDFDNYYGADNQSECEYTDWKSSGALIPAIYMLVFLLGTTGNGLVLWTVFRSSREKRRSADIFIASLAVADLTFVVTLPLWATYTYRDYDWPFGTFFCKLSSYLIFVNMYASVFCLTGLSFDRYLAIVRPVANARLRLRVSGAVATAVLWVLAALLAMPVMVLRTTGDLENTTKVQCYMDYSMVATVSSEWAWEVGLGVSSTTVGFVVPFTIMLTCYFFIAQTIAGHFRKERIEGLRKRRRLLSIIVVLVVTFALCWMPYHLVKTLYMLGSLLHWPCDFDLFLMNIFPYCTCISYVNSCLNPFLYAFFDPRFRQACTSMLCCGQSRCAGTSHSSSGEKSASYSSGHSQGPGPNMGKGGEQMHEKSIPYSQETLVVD
Nature of the test: in vitro apelin agonist activity (methods of Giddings et al., Apelin-13 as positive control). Format: cell-based. The text has this: The compounds above were studied for their in vitro activity as apelin agonists using the methods described by Giddings et al. Giddings et al., 2010 Int J High Thro Screen. 1:39-47, the contents of which are hereby incorporated by reference in its entirety.

[1] abbreviates: apelin agonist activity, Giddings et al. method, read-out: agonist activity (EC50).

pEC50: −log10 of the molar value. Like-named read-outs stand apart in the source and are kept apart here. A value given as a limit tells only on which side of the number the result lay.

The term pEC50 denotes −log10 of the EC50, conventionally taken in molar units. In the case of `CCCCCNC(=O)C[C@H](CC(C)C)NC(=O)c1cc(-c2c(OC)cccc2OC)n(CC(C)C)n1` [compound 156, (S)-5-(2,6-Dimethoxyphenyl)-1-isobutyl-N-(5-methyl-1-oxo-1-(pentylamino)hexan-3-yl)-1H-pyrazole-3-carboxamide], under setting [1], the pEC50 is over 5.00.

For `COc1cccc(OC)c1-c1cc(C(=O)NC(CC(=O)O)C2CCCCC2)nn1-c1ccc(F)cc1` (centres unmarked) [compound 257], the pEC50 under setting [1] was over 5.00. As for `COc1cccc(OC)c1-c1cc(C(=O)N[C@@H](CCN2CCCCC2)CC(=O)O)nn1CC(C)C` [compound 251], the pEC50 under setting [1] is over 5.00. Take `COc1cccc(OCc2ccccc2)c1-c1cc(C(=O)N[C@H](CC(=O)NCc2ccccc2)CC(C)C)nn1C1CCCCC1` [compound 132]: the pEC50 under setting [1] is over 5.00. Take `COC(=O)CNC(=O)[C@H](Cc1ccccc1)NC(=O)c1cc(-c2c(OC)cccc2OC)n(CC(C)C)n1` [compound 205]: the pEC50 under setting [1] is over 5.00.

Regarding `COC(=O)CNC(=O)C[C@H](CCCC1CCCCC1)NC(=O)c1cc(-c2c(OC)cccc2OC)n(CC(C)C)n1` [compound 242], the pEC50 under setting [1] is over 5.00. On to `COCCNC(=O)C[C@H](CCN1CCCCC1)NC(=O)c1cc(-c2c(OC)cccc2OC)n(CC(C)C)n1` [compound 249], for which, under setting [1], the pEC50 is over 5.00. For the compound `CCCCNC(=O)C[C@@H](CC(C)C)NC(=O)c1cc(-c2c(OC)cccc2OC)n(CC(C)C)n1` [compound 153], the pEC50 under setting [1] was over 5.00. For the compound `COc1cccc(OCc2ccccc2)c1-c1cc(C(=O)N[C@H](CC(=O)O)CC(C)C)nn1-c1ccc(F)cc1` [compound 82, (3S)-3-(5-(2-(Benzyloxy)-6-methoxyphenyl)-1-(4-fluorophenyl)-1H-pyrazole-3-carboxamido)-5-methylhexanoic acid], the pEC50 under setting [1] was over 5.00.

For the compound `COc1cccc(OC)c1-c1cc(C(=O)N[C@@H](CCC2CCCCC2)Cc2nnn[nH]2)nn1CC(C)C` [compound 265], under setting [1], the pEC50 is over 5.00.

Regarding `COc1cccc(OC)c1-c1cc(C(=O)N[C@@H](CCN2CCCCC2)CC(=O)NC2CCC2)nn1CC(C)C` [compound 247], the pEC50 under setting [1] was over 5.00. Regarding `COc1cccc(OC)c1-c1cc(C(=O)N[C@H](CC(=O)O)CC(C)C)nn1CC1CCCCC1` [compound 95, (S)-3-(1-(Cyclohexylmethyl)-5-(2,6-dimethoxyphenyl)-1H-pyrazole-3-carboxamido)-5-methylhexanoic acid], the pEC50 under setting [1] is over 5.00. Same read-out and setting: in the case of `COc1cccc(OC)c1-c1cc(C(=O)N[C@H](CC(=O)NC2CCCC2)CC(C)C)nn1CC(C)C` [compound 185] it was over 5.00. Turning to `CCCCCCNC(=O)C[C@H](CC(C)C)NC(=O)c1cc(-c2c(OC)cccc2OC)n(CC(C)C)n1` [compound 154, (S)-5-(2,6-Dimethoxyphenyl)-N-(1-(hexylamino)-5-methyl-1-oxohexan-3-yl)-1-isobutyl-1H-pyrazole-3-carboxamide], the pEC50 under setting [1] is over 5.00.

In turn, `COc1cccc(OC)c1-c1cc(C(=O)N[C@H](C(=O)O)C2CCCCC2)nn1C1CCCCC1` [compound 93, (S)-2-Cyclohexyl-2-(1-cyclohexyl-5-(2,6-dimethoxyphenyl)-1H-pyrazole-3-carboxamido)acetic acid] showed a pEC50 of over 5.00.

Take `COc1cccc(OC)c1-c1cc(C(=O)N[C@H](CC(=O)Nc2ccc(F)cc2)CC(C)C)nn1CC(C)C` [compound 163, (S)-5-(2,6-Dimethoxyphenyl)-N-(1-((4-fluorophenyl)amino)-5-methyl-1-oxohexan-3-yl)-1-isobutyl-1H-pyrazole-3-carboxamide]: the pEC50 under setting [1] was over 5.00. Take `CCC(O)CNC(=O)C[C@H](CCN1CCCCC1)NC(=O)c1cc(-c2c(OC)cccc2OC)n(CC(C)C)n1` (some centres unmarked) [compound 245]: the pEC50 under setting [1] is over 5.00.

As to `COc1cccc(OC)c1-c1cc(C(=O)N[C@H](CC(=O)NC(C)C)CC(C)C)nn1CC(C)C` [compound 162], the pEC50 under setting [1] is over 5.00.

`CCOC(=O)CCNC(=O)[C@H](CC(C)C)NC(=O)c1cc(-c2c(OC)cccc2OC)n(CC(C)C)n1` [compound 191]: the pEC50 under setting [1] is over 5.00. Regarding `COc1cccc(OC)c1-c1cc(C(=O)N[C@@H](CCc2ccccc2)C(=O)N2CCCC2)nn1CC(C)C` [compound 226], the pEC50 under setting [1] was over 5.00. The compound `COc1cccc(OC)c1-c1cc(C(=O)N[C@@H](CC2CCCCC2)C(=O)O)nn1CC(C)C` [compound 204] had a pEC50 of over 5.00. As for `COc1cccc(OC)c1-c1cc(C(=O)N[C@H](CC(=O)NC2CC2)CC(C)C)nn1CC(C)C` [compound 172], under setting [1], the pEC50 is over 5.00. With `COC(=O)CNC(=O)C[C@H](CC(C)C)NC(=O)c1cc(-c2c(OC)cccc2OC)n(C2CCCC2)n1` [compound 184], the pEC50 under setting [1] is over 5.00. The same measure, in the same setting: under `COc1cccc(OC)c1-c1cc(C(=O)N[C@H](CC(=O)NCC(=O)O)CC(C)C)nn1C1CCCCC1` [compound 81, (S)-2-(3-(1-Cyclohexyl-5-(2,6-dimethoxyphenyl)-1H-pyrazole-3-carboxamido)-5-methylhexanamido)acetic acid] stands over 5.00. On the same count and under the same terms, in the case of `COC(=O)CN(C)C(=O)[C@H](CC(C)C)NC(=O)c1cc(-c2c(OC)cccc2OC)n(CC(C)C)n1` [compound 219] it was over 5.00; in that of `COC(=O)CNC(=O)C[C@H](CC(C)C)NC(=O)c1cc(-c2c(OC)cccc2OCc2ccccc2)n(C2CCCCC2)n1` [compound 127, Methyl 2-((3S)-3-(5-(2-(benzyloxy)-6-methoxyphenyl)-1-cyclohexyl-1H-pyrazole-3-carboxamido)-5-methylhexanamido)acetate], over 5.00; in that of `COC(=O)CNC(=O)[C@H](CC1CCCCC1)NC(=O)c1cc(-c2cc(OC)ccc2OC)n(CC(C)C)n1` [compound 217], over 5.00. Turning to `CCCC[C@H](NC(=O)c1cc(-c2c(OC)cccc2OC)n(CC(C)C)n1)C(=O)NCC(=O)OC` [compound 212], the pEC50 under setting [1] is over 5.00. Regarding `COc1cccc(OC)c1-c1cc(C(=O)N[C@H](CC(=O)O)CC(C)C)nn1C1CCCCC1` [compound 79, (S)-3-(1-Cyclohexyl-5-(2,6-dimethoxyphenyl)-1H-pyrazole-3-carboxamido)-5-methylhexanoic acid], under setting [1], the pEC50 was over 5.00.

Compound `COc1cccc(OC)c1-c1cc(C(=O)N[C@H](C(=O)O)C2CCCCC2)nn1CC(C)C` [compound 169, (S)-2-Cyclohexyl-2-(5-(2,6-dimethoxyphenyl)-1-isobutyl-1H-pyrazole-3-carboxamido)acetic acid] showed a pEC50 of over 5.00. `COCCN(C)C(=O)[C@H](CCC1CCCCC1)NC(=O)c1cc(-c2c(OC)cccc2OC)n(CC(C)C)n1` [compound 256]: the pEC50 under setting [1] was over 5.00. `COc1cccc(OCc2ccccc2)c1-c1cc(C(=O)N[C@H](CC(=O)NCC(=O)O)CC(C)C)nn1C1CCCCC1` [compound 129, 2-((3S)-3-(5-(2-(Benzyloxy)-6-methoxyphenyl)-1-cyclohexyl-1H-pyrazole-3-carboxamido)-5-methylhexanamido)acetic acid]: the pEC50 under setting [1] was over 5.00.

On to `COc1cccc(OC)c1-c1cc(C(=O)N[C@H](C(=O)O)C2CCCCC2)nn1-c1ccc(F)cc1` [compound 71, (S)-2-Cyclohexyl-2-(5-(2,6-dimethoxyphenyl)-1-(4-fluorophenyl)-1H-pyrazole-3-carboxamido)acetic acid], for which the pEC50 under setting [1] is over 5.00. As to `COc1cccc(OC)c1-c1cc(C(=O)N[C@H](CC(=O)O)CC(C)C)nn1-c1ccc(F)cc1` [compound 56, (S)-3-(5-(2,6-Dimethoxyphenyl)-1-(4-fluorophenyl)-1H-pyrazole-3-carboxamido)-5-methylhexanoic acid], under setting [1], the pEC50 is over 5.00. The same measure, in the same setting: under `COC(=O)CNC(=O)CC(NC(=O)c1cc(-c2c(OC)cccc2OC)n(-c2ccc(F)cc2)n1)C1CCCCC1` (centres unmarked) [compound 258] stands over 5.00. For `COc1cccc(OC)c1-c1cc(C(=O)N[C@H](CC(=O)NCCO)CC(C)C)nn1CC(C)C` [compound 142, (S)-5-(2,6-Dimethoxyphenyl)-N-(1-((2-hydroxyethyl)amino)-5-methyl-1-oxohexan-3-yl)-1-isobutyl-1H-pyrazole-3-carboxamide], the pEC50 under setting [1] is over 5.00. On to `C=C[C@@H](CC(=O)NC1CCC1)NC(=O)c1cc(-c2c(OC)cccc2OC)n(C2CCCC2)n1` [compound 263], for which the pEC50 under setting [1] is over 5.00. Still for that read-out and setting: under `CCNC(=O)C[C@H](CC(C)C)NC(=O)c1cc(-c2c(OC)cccc2OC)n(CC(C)C)n1` [compound 161, (S)-5-(2,6-Dimethoxyphenyl)-N-(1-(ethylamino)-5-methyl-1-oxohexan-3-yl)-1-isobutyl-1H-pyrazole-3-carboxamide] stands over 5.00.

These data come from patent publication US10377718B2, “Apelin receptor (APJ) agonists and uses thereof” (Research Triangle Institute, priority 2014, dated 2019).
